Literature values as cited in US11566140B2, “Exterior coating composition” (Troy Corporation, priority 2019, dated 2023).

Conditions: 5 grams of pure BIT completely soluble in 100 ml of methanol

## O=c1[nH]sc2ccccc12 [BIT, 1,2-benzisothiazolin-3-one]
  solubility in methanol: greater than 5%
